Values of other authors as cited in US20220000160A1, “FLAVONOID DELIVERY SYSTEM” (priority 2019, published 2022).

C[C@@H]1O[C@@H](OC[C@H]2O[C@@H](Oc3c(-c4ccc(O)c(O)c4)oc4cc(O)cc(O)c4c3=O)[C@H](O)[C@@H](O)[C@@H]2O)[C@H](O)[C@H](O)[C@H]1O [Free rutin, quercetin-3-rhamnosylglucoside]
solubility in ethanol: about 4 % w/v
